Series [1] in a line: Cytotoxicity against HEK293T cells assessed as reduction in cell viability measured after 48 hrs by MTT assay. It counts as toxicity, cell-based, HEK-293T. The note with it: human.
The nature of series [2]: Drug uptake in human skin fibroblast lysosomes assessed as fold change in corrected total cell fluorescence at 50 uM measured after 2 hrs by LysoTracker Red DND-99 dye based laser scanning confocal microscopy relative to control. It counts as ADME, subcellular, Lysosome.
Series [3] is described as follows: Half-life in rat whole blood at 500 ng/ml by LC-MS/MS analysis. The series is classed as ADME, tissue-based.

As a reminder, the CC50 is the concentration at which the toxic effect on the cells reaches its halfway point. As for `CCN1CCN(CC(=O)O[C@H]2C(C)(C)[C@H]3CC[C@]2(C)C3)CC1`, in series [1], the CC50 at 48 h is 907 µM. On the same count and under the same terms, under `CC1(C)[C@H]2CC[C@](C)(C2)[C@H]1OC(=O)CCCN1CCCCC1` stands 458 µM; under `CC1CCN(CCCC(=O)O[C@H]2C(C)(C)[C@H]3CC[C@]2(C)C3)CC1`, 130 µM; under `C[C@@H]1[C@H]2C[C@@H](C[C@H]1OC(=O)CCCN1CCCCC1)C2(C)C`, 123 µM. Take `C[C@@H]1[C@H]2C[C@@H](C[C@H]1OC(=O)CCCN1CCN(c3ccccc3)CC1)C2(C)C`: the cytotoxic concentration (CC50) at 48 h in series [1] turned out to be 67 µM. Still for that read-out and setting: next, `CCN1CCN(CCC(=O)O[C@H]2C(C)(C)[C@H]3CC[C@]2(C)C3)CC1`: 356 µM. As to `C[C@@H]1[C@H]2C[C@@H](C[C@H]1OC(=O)CCN1CCCCC1)C2(C)C`, in series [2], the “fold change (FC)” value was determined as 0.37. For the same compound, in series [1], the CC50 at 48 h amounted to 334 µM. Turning to `C[C@@H]1[C@H]2C[C@@H](C[C@H]1OC(=O)CN1CCN(C)CC1)C2(C)C`, the CC50 at 48 h in series [1] worked out at 628 µM.

For the compound `C[C@@H]1[C@H]2C[C@@H](C[C@H]1OC(=O)CCCN1CCOCC1)C2(C)C`, the 50% cytotoxic concentration (CC50) at 48 h in series [1] was found to be 116 µM. Regarding `C[C@@H]1[C@H]2C[C@@H](C[C@H]1OC(=O)CN1CCOCC1)C2(C)C`, the “fold change (FC)” value in series [2] was found to be 0.56. The CC50 at 48 h in series [1] is 199 µM. As a reminder, the half-life is the time needed for the level to fall by half in the phase considered. Higher therefore signals slow decline. As to `CC1(C)[C@@H]2CC[C@@]1(C)[C@@H](OC(=O)CCN1CCCCC1)C2`, in series [3], the half-life at 500 ng/ml came to 20 min.

Regarding `CN1CCN(CC(=O)O[C@H]2C(C)(C)[C@H]3CC[C@]2(C)C3)CC1`, the half-maximal cytotoxic concentration (CC50) at 48 h in series [1] turned out to be 645 µM. Consider `C[C@@H]1[C@H]2C[C@@H](C[C@H]1OC(=O)CN1CCCCC1)C2(C)C`, for which the “fold change (FC)” value in series [2] turned out to be 0.46. For the same compound, the CC50 at 48 h in series [1] is 314 µM. Turning to `CC1(C)[C@H]2CC[C@](C)(C2)[C@H]1OC(=O)CCN1CCCCC1`, in series [2], the “fold change (FC)” value was determined as 0.3. Also, in series [1], the half-maximal cytotoxic concentration (CC50) at 48 h is 351 µM. The corresponding values for `C[C@@H]1[C@H]2C[C@@H](C[C@H]1OC(=O)CCN1CCOCC1)C2(C)C` are 0.57 and 281 µM. Take `CC1CCN(CC(=O)O[C@H]2C(C)(C)[C@H]3CC[C@]2(C)C3)CC1`: the CC50 at 48 h in series [1] worked out at 241 µM. As to `C[C@@H]1[C@H]2C[C@@H](C[C@H]1OC(=O)CCCN1CCN(C)CC1)C2(C)C`, the half-maximal cytotoxic concentration (CC50) at 48 h in series [1] was found to be 164 µM. On the same count and under the same terms, next, `CC1(C)[C@H]2CC[C@](C)(C2)[C@H]1OC(=O)CCCN1CCN(c2ccccc2)CC1`: 11 µM. Same read-out and setting: under `CC1(C)[C@H]2CC[C@](C)(C2)[C@H]1OC(=O)CN1CCN(c2ccccc2)CC1` stands 101 µM; under `CC1(C)[C@H]2CC[C@](C)(C2)[C@H]1OC(=O)CCN1CCN(c2ccccc2)CC1`, 21 µM.

Take `C[C@@H]1[C@H]2C[C@@H](C[C@H]1OC(=O)CCN1CCN(C)CC1)C2(C)C`: the CC50 at 48 h in series [1] worked out at 318 µM. With `CC1(C)[C@H]2CC[C@](C)(C2)[C@H]1OC(=O)CCCN1CCOCC1`, in series [2], the “fold change (FC)” value was found to be 0.56. Moreover, the CC50 at 48 h in series [1] is 261 µM. Consider `CN(C)CCOc1ccc(/C(=C(/CCCl)c2ccccc2)c2ccccc2)cc1` [TOREMIFENE], for which the CC50 at 48 h in series [1] came out at 17 µM. On to `CN1CCN(CCC(=O)O[C@H]2C(C)(C)[C@H]3CC[C@]2(C)C3)CC1`, for which the “fold change (FC)” value in series [2] stood at 0.33. Also, in series [1], the CC50 at 48 h amounted to 454 µM. `CC1(C)[C@H]2CC[C@](C)(C2)[C@H]1OC(=O)CN1CCCCC1`: the “fold change (FC)” value in series [2] is 0.6. Besides, the CC50 at 48 h in series [1] was 229 µM. Regarding `CCN1CCN(CCCC(=O)O[C@H]2C(C)(C)[C@H]3CC[C@]2(C)C3)CC1`, the 50% cytotoxic concentration (CC50) at 48 h in series [1] turned out to be 404 µM. Turning to `CC1CCN(CCC(=O)O[C@H]2C(C)(C)[C@H]3CC[C@]2(C)C3)CC1`, the CC50 at 48 h in series [1] was 188 µM. `C[C@@H]1[C@H]2C[C@@H](C[C@H]1OC(=O)CCN1CCN(c3ccccc3)CC1)C2(C)C`: in series [1], the CC50 at 48 h was 128 µM.

In the case of `CC1(C)[C@H]2CC[C@](C)(C2)[C@H]1OC(=O)CCN1CCOCC1`, in series [1], the CC50 at 48 h amounted to 318 µM. Still for that read-out and setting: next, `CC1(C)[C@H]2CC[C@](C)(C2)[C@H]1OC(=O)CN1CCOCC1`: 291 µM. For the compound `C[C@@H]1[C@H]2C[C@@H](C[C@H]1OC(=O)CN1CCN(c3ccccc3)CC1)C2(C)C`, the CC50 at 48 h in series [1] worked out at 59 µM. The same measure, in the same setting: next, `CN1CCN(CCCC(=O)O[C@H]2C(C)(C)[C@H]3CC[C@]2(C)C3)CC1`: more than 775 µM.

The values are drawn from ChEMBL document CHEMBL5579834 (Eur J Med Chem, 2024).
